“And” between values parts separate entries of the source, which are not always exact repeats. Equal entries are not always repeated. HELM strings list units from the 5' end as sugar, base in round brackets, then linkage (d deoxyribose, r ribose, m 2'-O-methyl, p phosphodiester). Methylation of C is not given here. [moe] = 2'-O-(2-methoxyethyl) (MOE); [cEt] = constrained ethyl (cEt); [sp] = phosphorothioate linkage
Target: HBV
Conditions: ASO

Substance	target mRNA inhibition (HepG2, 0.07 µM)	further results
RNA1{[moe](G)[sp].[moe](C)[sp].[moe](A)[sp].[moe](G)[sp].d(A)[sp].d(G)[sp].d(G)[sp].d(T)[sp].d(G)[sp].d(A)[sp].d(A)[sp].d(G)[sp].d(C)[sp].[moe](G)[sp].[moe](A)[sp].[moe](A)}$$$$V2.0	60%	–
RNA1{[moe](G)[sp].[moe](C)[sp].[moe](A)[sp].[moe](T)[sp].d(A)[sp].d(G)[sp].d(C)[sp].d(A)[sp].d(G)[sp].d(C)[sp].d(A)[sp].d(G)[sp].d(G)[sp].[moe](A)[sp].[moe](T)[sp].[moe](G)}$$$$V2.0	44% and 56%	–
RNA1{[moe](G)[sp].[moe](C)[sp].[moe](A)[sp].d(C)[sp].d(T)[sp].d(A)[sp].d(G)[sp].d(T)[sp].d(A)[sp].d(A)[sp].d(A)[sp].d(C)[sp].[moe](T)[sp].[moe](G)[sp].[moe](A)[sp].[moe](G)[sp].[moe](C)}$$$$V2.0	74% and 68%	–
RNA1{[moe](G)[sp].[moe](C)[sp].[moe](A)[sp].d(G)[sp].d(A)[sp].d(G)[sp].d(G)[sp].d(T)[sp].d(G)[sp].d(A)[sp].d(A)[sp].d(G)[sp].[moe](C)[sp].[moe](G)[sp].[moe](A)[sp].[moe](A)[sp].[moe](G)}$$$$V2.0	75% and 66%	–
RNA1{[moe](G)[sp].[moe](C)[sp].[moe](A)[sp].d(G)[sp].d(T)[sp].d(A)[sp].d(T)[sp].d(G)[sp].d(G)[sp].d(A)[sp].d(T)[sp].d(C)[sp].d(G)[sp].[cEt](G)[sp].[cEt](C)[sp].[cEt](A)}$$$$V2.0	74% and 85%	target mRNA inhibition (HepG2, 0.0092593 µM): 4%; target mRNA inhibition (HepG2, 0.0277778 µM): 36%; target mRNA inhibition (HepG2, 0.0833333 µM): 58%; target mRNA inhibition (HepG2, 0.25 µM): 84%
RNA1{[moe](G)[sp].[moe](C)[sp].[moe](A)[sp].d(T)[sp].d(A)[sp].d(G)[sp].d(C)[sp].d(A)[sp].d(G)[sp].d(C)[sp].d(A)[sp].d(G)[sp].[moe](G)[sp].[moe](A)[sp].[moe](T)[sp].[moe](G)}$$$$V2.0	60% and 53%	–
RNA1{[moe](G)[sp].[moe](C)[sp].[moe](A)[sp].d(T)[sp].d(A)[sp].d(G)[sp].d(C)[sp].d(A)[sp].d(G)[sp].d(C)[sp].d(A)[sp].d(G)[sp].d(G)[sp].[cEt](A)[sp].[cEt](T)[sp].[cEt](G)}$$$$V2.0	67% and 76%	–
RNA1{[moe](G)[sp].[moe](G)[sp].[moe](A)[sp].d(G)[sp].d(T)[sp].d(T)[sp].d(C)[sp].d(C)[sp].d(G)[sp].d(C)[sp].d(A)[sp].d(G)[sp].d(T)[sp].[cEt](A)[sp].[cEt](T)[sp].[cEt](G)}$$$$V2.0	74% and 82%	target mRNA inhibition (HepG2, 0.0092593 µM): 0%; target mRNA inhibition (HepG2, 0.0277778 µM): 25%; target mRNA inhibition (HepG2, 0.0833333 µM): 53%; target mRNA inhibition (HepG2, 0.25 µM): 72%
RNA1{[moe](G)[sp].[moe](G)[sp].[moe](C)[sp].d(A)[sp].d(T)[sp].d(A)[sp].d(G)[sp].d(C)[sp].d(A)[sp].d(G)[sp].d(C)[sp].d(A)[sp].d(G)[sp].[moe](G)[sp].[moe](A)[sp].[moe](T)[sp].[moe](G)}$$$$V2.0	–	target mRNA inhibition (HepG2, 0.0092593 µM): 11%; target mRNA inhibition (HepG2, 0.009375 µM): 42%; target mRNA inhibition (HepG2, 0.01875 µM): 30%; target mRNA inhibition (HepG2, 0.0277778 µM): 28%; target mRNA inhibition (HepG2, 0.0375 µM): 43%; target mRNA inhibition (HepG2, 0.075 µM): 61%; target mRNA inhibition (HepG2, 0.0833333 µM): 60%; target mRNA inhibition (HepG2, 0.15 µM): 77%; target mRNA inhibition (HepG2, 0.25 µM): 77%; target mRNA inhibition (HepG2, 0.3 µM): 91%
RNA1{[moe](G)[sp].[moe](G)[sp].[moe](T)[sp].[moe](G)[sp].[moe](A)[sp].[moe](A)[sp].d(G)[sp].d(C)[sp].d(G)[sp].d(A)[sp].d(A)[sp].d(G)[sp].d(T)[sp].d(G)[sp].d(C)[sp].[moe](A)[sp].[moe](C)}$$$$V2.0	85% and 67%	–
RNA1{[moe](G)[sp].[moe](T)[sp].[moe](G)[sp].[moe](A)[sp].d(A)[sp].d(G)[sp].d(C)[sp].d(G)[sp].d(A)[sp].d(A)[sp].d(G)[sp].d(T)[sp].d(G)[sp].[moe](C)[sp].[moe](A)[sp].[moe](C)}$$$$V2.0	62% and 71%	–
RNA1{[moe](G)[sp].[moe](T)[sp].[moe](G)[sp].[moe](C)[sp].[moe](A)[sp].d(G)[sp].d(A)[sp].d(G)[sp].d(G)[sp].d(T)[sp].d(G)[sp].d(A)[sp].d(A)[sp].d(G)[sp].[moe](C)[sp].[moe](G)[sp].[moe](A)}$$$$V2.0	68% and 62%	–
RNA1{[moe](G)[sp].[moe](T)[sp].[moe](G)[sp].[moe](C)[sp].[moe](A)[sp].d(G)[sp].d(A)[sp].d(G)[sp].d(G)[sp].d(T)[sp].d(G)[sp].d(A)[sp].d(A)[sp].d(G)[sp].[moe](C)[sp].[moe](G)}$$$$V2.0	57% and 51%	–
RNA1{[moe](G)[sp].[moe](T)[sp].[moe](G)[sp].d(A)[sp].d(A)[sp].d(G)[sp].d(C)[sp].d(G)[sp].d(A)[sp].d(A)[sp].d(G)[sp].d(T)[sp].[moe](G)[sp].[moe](C)[sp].[moe](A)[sp].[moe](C)[sp].[moe](A)}$$$$V2.0	71% and 63%	–
RNA1{[moe](G)[sp].[moe](T)[sp].[moe](G)[sp].d(C)[sp].d(A)[sp].d(G)[sp].d(A)[sp].d(G)[sp].d(G)[sp].d(T)[sp].d(G)[sp].d(A)[sp].[moe](A)[sp].[moe](G)[sp].[moe](C)[sp].[moe](G)[sp].[moe](A)}$$$$V2.0	67% and 62%	–
RNA1{[moe](G)[sp].[moe](T)[sp].[moe](T)[sp].[moe](C)[sp].[moe](C)[sp].d(G)[sp].d(C)[sp].d(A)[sp].d(G)[sp].d(T)[sp].d(A)[sp].d(T)[sp].d(G)[sp].d(G)[sp].[moe](A)[sp].[moe](T)}$$$$V2.0	54% and 51%	–
RNA1{[moe](G)[sp].[moe](T)[sp].[moe](T)[sp].d(C)[sp].d(C)[sp].d(G)[sp].d(C)[sp].d(A)[sp].d(G)[sp].d(T)[sp].d(A)[sp].d(T)[sp].[moe](G)[sp].[moe](G)[sp].[moe](A)[sp].[moe](T)[sp].[moe](C)}$$$$V2.0	60% and 54%	–
RNA1{[moe](G)[sp].[moe](T)[sp].[moe](T)[sp].d(C)[sp].d(C)[sp].d(G)[sp].d(C)[sp].d(A)[sp].d(G)[sp].d(T)[sp].d(A)[sp].d(T)[sp].[moe](G)[sp].[moe](G)[sp].[moe](A)[sp].[moe](T)}$$$$V2.0	51% and 65%	–
RNA1{[moe](G)[sp].[moe](T)[sp].[moe](T)[sp].d(C)[sp].d(C)[sp].d(G)[sp].d(C)[sp].d(A)[sp].d(G)[sp].d(T)[sp].d(A)[sp].d(T)[sp].d(G)[sp].[cEt](G)[sp].[cEt](A)[sp].[cEt](T)}$$$$V2.0	52% and 67%	–
RNA1{[moe](T)[sp].[cEt](C)[sp].[cEt](C)[sp].d(G)[sp].d(C)[sp].d(A)[sp].d(G)[sp].d(T)[sp].d(A)[sp].d(T)[sp].d(G)[sp].d(G)[sp].d(A)[sp].[cEt](T)[sp].[cEt](C)[sp].[moe](G)}$$$$V2.0	79% and 76%	–
RNA1{[moe](T)[sp].[cEt](G)[sp].[cEt](A)[sp].d(A)[sp].d(C)[sp].d(A)[sp].d(A)[sp].d(A)[sp].d(T)[sp].d(G)[sp].d(G)[sp].d(C)[sp].d(A)[sp].[cEt](C)[sp].[cEt](T)[sp].[moe](A)}$$$$V2.0	71% and 59%	–
RNA1{[moe](T)[sp].[cEt](G)[sp].[cEt](A)[sp].d(A)[sp].d(G)[sp].d(C)[sp].d(G)[sp].d(A)[sp].d(A)[sp].d(G)[sp].d(T)[sp].d(G)[sp].d(C)[sp].[cEt](A)[sp].[cEt](C)[sp].[moe](A)}$$$$V2.0	69% and 77%	–
RNA1{[moe](T)[sp].[cEt](G)[sp].[cEt](A)[sp].d(G)[sp].d(A)[sp].d(G)[sp].d(A)[sp].d(A)[sp].d(G)[sp].d(T)[sp].d(C)[sp].d(C)[sp].d(A)[sp].[cEt](C)[sp].[cEt](C)[sp].[moe](A)}$$$$V2.0	53% and 49%	–
RNA1{[moe](T)[sp].[cEt](G)[sp].[cEt](C)[sp].d(A)[sp].d(G)[sp].d(A)[sp].d(G)[sp].d(G)[sp].d(T)[sp].d(G)[sp].d(A)[sp].d(A)[sp].d(G)[sp].[cEt](C)[sp].[cEt](G)[sp].[moe](A)}$$$$V2.0	71% and 73%	–
RNA1{[moe](T)[sp].[cEt](G)[sp].[cEt](G)[sp].d(A)[sp].d(G)[sp].d(C)[sp].d(C)[sp].d(A)[sp].d(C)[sp].d(C)[sp].d(A)[sp].d(G)[sp].d(C)[sp].[cEt](A)[sp].[cEt](G)[sp].[moe](G)}$$$$V2.0	57% and 53%	–
RNA1{[moe](T)[sp].[cEt](G)[sp].d(C)[sp].d(A)[sp].d(G)[sp].d(A)[sp].d(G)[sp].d(G)[sp].d(T)[sp].d(G)[sp].d(A)[sp].d(A)[sp].[cEt](G)[sp].[moe](C)[sp].[cEt](G)[sp].[moe](A)}$$$$V2.0	77% and 86%	target mRNA inhibition (HepG2, 0.0092593 µM): 5%; target mRNA inhibition (HepG2, 0.0277778 µM): 39%; target mRNA inhibition (HepG2, 0.0833333 µM): 70%; target mRNA inhibition (HepG2, 0.25 µM): 85%
RNA1{[moe](T)[sp].[cEt](G)[sp].d(G)[sp].d(A)[sp].d(G)[sp].d(C)[sp].d(C)[sp].d(A)[sp].d(C)[sp].d(C)[sp].d(A)[sp].d(G)[sp].[cEt](C)[sp].[moe](A)[sp].[cEt](G)[sp].[moe](G)}$$$$V2.0	59% and 42%	–
RNA1{[moe](T)[sp].[cEt](T)[sp].[cEt](A)[sp].d(T)[sp].d(G)[sp].d(C)[sp].d(C)[sp].d(T)[sp].d(A)[sp].d(C)[sp].d(A)[sp].d(G)[sp].d(C)[sp].[cEt](C)[sp].[cEt](T)[sp].[moe](C)}$$$$V2.0	48% and 23%	–
RNA1{[moe](T)[sp].[moe](A)[sp].[moe](T)[sp].[moe](G)[sp].[moe](C)[sp].d(C)[sp].d(T)[sp].d(A)[sp].d(C)[sp].d(A)[sp].d(G)[sp].d(C)[sp].d(C)[sp].d(T)[sp].[moe](C)[sp].[moe](C)}$$$$V2.0	47% and 42%	–
RNA1{[moe](T)[sp].[moe](C)[sp].[moe](C)[sp].d(G)[sp].d(C)[sp].d(A)[sp].d(G)[sp].d(T)[sp].d(A)[sp].d(T)[sp].d(G)[sp].d(G)[sp].[moe](A)[sp].[moe](T)[sp].[moe](C)[sp].[moe](G)}$$$$V2.0	65% and 72%	–
